One assay deals with LoVo. Kind of assay: Cytotoxicity against human LoVo cells. The class given is functional, cell-based.
The subject of assay [1] is Mycobacterium tuberculosis. Kind of assay: Antimycobacterial activity against Mycobacterium tuberculosis ATCC 35818 at 100 ug/disk by disk diffusion susceptibility assay. The assay is classed as functional. Particulars: read-out: DIZ.
Assay [2] addresses Prothrombin (Homo sapiens) (UniProt P00734). Kind of assay: Inhibition of thrombin.
Assay [3] deals with Mycobacterium tuberculosis. Kind of assay: Antimycobacterial activity against Mycobacterium tuberculosis ATCC 35818 at 25 ug/disk by disk diffusion susceptibility assay. The class given is functional. As to conditions: read-out: DIZ.
The nature of assay [4]: Inhibition of elastase.
In another assay the target is T1, Papain (Carica papaya) (UniProt P00784).
T1 sequence (whole entry): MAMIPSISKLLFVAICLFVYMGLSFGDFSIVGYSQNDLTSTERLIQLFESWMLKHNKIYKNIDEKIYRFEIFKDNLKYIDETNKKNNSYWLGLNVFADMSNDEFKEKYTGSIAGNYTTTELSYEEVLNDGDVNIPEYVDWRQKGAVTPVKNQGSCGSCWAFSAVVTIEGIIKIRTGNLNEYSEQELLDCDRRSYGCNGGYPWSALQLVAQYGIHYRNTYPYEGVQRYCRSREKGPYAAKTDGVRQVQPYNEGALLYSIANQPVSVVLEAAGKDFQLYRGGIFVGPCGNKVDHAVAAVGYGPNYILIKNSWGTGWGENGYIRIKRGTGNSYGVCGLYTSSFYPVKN
Kind of assay: Inhibition of papaya papain.

A short description of assay [5]: Inhibition of chymotrypsin.
The nature of assay [6]: Stimulation of elastase activity at 50 ug/ml relative to control.
The test system of assay [7] is Mycobacterium tuberculosis. Kind of assay: Antimycobacterial activity against Mycobacterium tuberculosis ATCC 25177 at 25 ug/disk by disk diffusion susceptibility assay. The assay is classed as functional. Particulars: read-out: DIZ. A general note: Agar diffusion results depend on both activity and mobility in agar.
Assay [8] can be described thus: Inhibition of trypsin.
Assay [9] concerns the target Plasminogen (Homo sapiens) (UniProt P00747). Kind of assay: Inhibition of plasmin.
In assay [10] the test system is Mycobacterium tuberculosis. Kind of assay: Antimycobacterial activity against Mycobacterium tuberculosis ATCC 25177 at 100 ug/disk by disk diffusion susceptibility assay. The assay is classed as functional. As to conditions: read-out: DIZ.
In assay [11] the test system is Mycobacterium tuberculosis. Kind of assay: Antimycobacterial activity against Mycobacterium tuberculosis ATCC 25177 at 1 ug/disk by disk diffusion susceptibility assay. The class given is functional. As to conditions: read-out: DIZ.
In assay [12] the test system is Mycobacterium tuberculosis. Kind of assay: Antimycobacterial activity against Mycobacterium tuberculosis ATCC 25177 at 5 ug/disk by disk diffusion susceptibility assay. The assay is classed as functional. Particulars: read-out: DIZ.
Assay [13] has as its system Mycobacterium tuberculosis. Kind of assay: Antimycobacterial activity against Mycobacterium tuberculosis ATCC 35818 at 1 ug/disk by disk diffusion susceptibility assay. The class given is functional. As to conditions: read-out: DIZ.
Assay [14] deals with Mycobacterium tuberculosis. Kind of assay: Antimycobacterial activity against Mycobacterium tuberculosis ATCC 35818 at 5 ug/disk by disk diffusion susceptibility assay. As to conditions: read-out: DIZ. The assay is classed as functional.

Results on 3 compounds are retold here after ChEMBL document CHEMBL1150566, “Pitipeptolides A and B, new cyclodepsipeptides from the marine cyanobacterium Lyngbya majuscula” (J Nat Prod, 2001).

Each structure is given as a SMILES string. ≈ marks a conversion by molar mass, not a printed value. Calls of active or inactive are those of the source. No cut-off for these calls is given here. Numbered stars: 1 amine (or outer) side, 2 acyl side, 3 side chain; on linkers, the order of the positions; unused ones are H or OH. Bridge positions count the residues as written; N and C are the ends. Square brackets hold non-standard residues; d marks the D form. Peptide text beside a SMILES is read from it. X1 = C=CCCC[C@H](O[*:2])C(C)(C)C(=O)[*:1]; X2 = C#CCCC[C@H](O[*:2])C(C)(C)C(=O)[*:1]; Hmpa(2S,3S) = CC[C@H](C)[C@H](O)C(=O)O; NMeF = CN[C@@H](Cc1ccccc1)C(=O)O

Sequence of Plasminogen (Homo sapiens) (P00747 97-580 limits assumed): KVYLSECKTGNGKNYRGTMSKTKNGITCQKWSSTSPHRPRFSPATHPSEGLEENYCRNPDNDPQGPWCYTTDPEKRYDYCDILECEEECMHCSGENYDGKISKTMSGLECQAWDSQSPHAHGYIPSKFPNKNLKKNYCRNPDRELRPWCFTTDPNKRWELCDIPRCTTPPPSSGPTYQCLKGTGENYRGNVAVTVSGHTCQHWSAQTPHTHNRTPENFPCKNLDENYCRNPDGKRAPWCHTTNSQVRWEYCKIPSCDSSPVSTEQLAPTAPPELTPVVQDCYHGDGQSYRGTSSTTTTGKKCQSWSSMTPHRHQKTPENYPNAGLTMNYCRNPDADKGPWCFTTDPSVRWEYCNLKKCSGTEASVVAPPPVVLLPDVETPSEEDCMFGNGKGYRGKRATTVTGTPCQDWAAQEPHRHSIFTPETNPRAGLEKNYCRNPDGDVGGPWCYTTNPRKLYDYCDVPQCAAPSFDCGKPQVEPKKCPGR
Sequence of Plasminogen (Homo sapiens) (P00747 581-810 limits assumed): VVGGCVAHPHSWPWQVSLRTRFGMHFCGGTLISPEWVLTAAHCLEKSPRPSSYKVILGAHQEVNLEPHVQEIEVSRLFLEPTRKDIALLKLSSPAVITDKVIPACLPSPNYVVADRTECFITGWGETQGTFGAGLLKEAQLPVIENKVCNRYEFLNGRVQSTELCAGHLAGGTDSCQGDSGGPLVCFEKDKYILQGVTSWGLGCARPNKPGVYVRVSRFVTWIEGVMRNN

In the case of `C#CCCC[C@@H]1OC(=O)CNC(=O)[C@H]([C@@H](C)CC)NC(=O)[C@@H]2CCCN2C(=O)[C@H]([C@@H](C)CC)OC(=O)[C@H](Cc2ccccc2)N(C)C(=O)[C@H](C(C)C)NC(=O)C1(C)C` [PITIPEPTOLIDE A] (V[NMeF][Hmpa(2S,3S)]PIG; linker N-C via X2), in the assay with LoVo, the IC50 (commonly the concentration that gives 50% inhibition) amounted to 2.25 µg/mL (≈ 2.78 µM). For the same compound, the zone of inhibition at 100 µg/disc in [1] was 15 mm; in assay [10] it was 25 mm. Also, the outcome (in assay [2]; in [4]; at Papain (Carica papaya); in assay [5]; in assay [8]; in assay [9]) was inactive. The zone of inhibition at 25 µg/disc worked out at 9 mm in [3] and 10 mm in [7]. This compound returned a fold change (FC) in assay [6] of 2.76.

In the assay with LoVo, `C=CCCC[C@@H]1OC(=O)CNC(=O)[C@H]([C@@H](C)CC)NC(=O)[C@@H]2CCCN2C(=O)[C@H]([C@@H](C)CC)OC(=O)[C@H](Cc2ccccc2)N(C)C(=O)[C@H](C(C)C)NC(=O)C1(C)C` [PITIPEPTOLIDE B] (V[NMeF][Hmpa(2S,3S)]PIG; linker N-C via X1) showed an IC50 of 1.95 µg/mL (≈ 2.41 µM). Moreover, the zone of inhibition at 100 µg/disc in assay [1] came to 15 mm; in assay [10], 30 mm. Moreover, the result (in assay [2]; in assay [4]; at Papain (Carica papaya); in [5]; in assay [8]; in assay [9]) was inactive. Moreover, the zone of inhibition at 25 µg/disc in assay [3] worked out at 10 mm; in [7], 15 mm. In [6], this compound registered a fold change (FC) of 2.55.

As to `CN[C@@H]1[C@H](O[C@H]2[C@H](O[C@H]3[C@H](O)[C@@H](O)[C@H](N=C(N)N)[C@@H](O)[C@@H]3N=C(N)N)O[C@@H](C)[C@]2(O)C=O)O[C@@H](CO)[C@H](O)[C@H]1O` [STREPTOMYCIN], the zone of inhibition at 1 µg/disc in assay [11] is 0 mm; in assay [13] it was 10 mm. Also, the zone of inhibition at 25 µg/disc in assay [3] amounted to 55 mm; in assay [7] it was 50 mm. Also, the zone of inhibition at 5 µg/disc was 15 mm in assay [12] and 33 mm in assay [14].
